Measurements from PMC5321753, “Enhanced expression of ADCY1 underlies aberrant neuronal signalling and behaviour in a syndromic autism model” (Nature Communications, 2017).

Experiments:
[1] = system: ERK1/2; experiment: ERK1/2 activation in cultured hippocampal neurons after DHPG; format: cell-based, mouse; conditions: both WT and Fmr1 KO neurons, DHPG 100 μM
Description: (§1) Primary hippocampal neurons were cultured as described, and used for the examination of mGluR1/5-mediated signalling and protein synthesis. Neurons were treated with 100 μM DHPG ((RS)-3,5-dihydroxyphenylglycine). Protein level and mRNA level were examined by western blot (for ADCY1, β-actin, p-ERK1/2 and ERK1/2) and quantitative RT-PCR (for Adcy1 and Gapdh mRNA), respectively.

[2] = system: ADCY1; experiment: ADCY1 protein (western blot) and Adcy1 mRNA (qRT-PCR) in cultured hippocampal neurons after DHPG; format: cell-based, mouse; conditions: DHPG 100 μM
Description: as §1

[3] = system: Fmr1 KO mice; parameters: method as in PMID 25568131; conditions: cited from earlier work
[4] = system: fly model of FXS; parameters: method as in PMID 25568131; conditions: cited from earlier work
[5] = system: WT and Fmr1 KO mice; experiment: Audiogenic seizures (AGS) induced by 120 dB sound; format: in vivo, mouse
Description: Audiogenic seizures (AGS) were examined with 21- to 24-day-old-mouse (7), as this phenotype is dependent on the age of the mouse and only detected in juvenile Frm1 KO mouse. Mouse was placed in a box (30 cm L × 17 cm W × 12 cm H) with a flat plastic lid. A personal alarm (Streetwise, item # SWPDAL) was taped to the lid of the box and wired to a DC power supply to keep the sound amplitude constant. The mouse was allowed to acclimatize to the box for 5 min, following which 120 dB sound was emitted from the alarm for 2 min. The number of mice undergoing seizure activity within the 2-min period was counted. Audiogenic seizures were classified into different stages: wild running, clonic/tonic seizure and death.
(§2) NB001 was dissolved in water to give a 25 mM stock solution. The stock was diluted in saline and IP injected into mice at 1 mg kg^−1 body weight. In all cases, the drug was administered 1 h before testing. Control mice were treated similarly but injected with saline.
(§3) To inhibit phosphodiesterase (PDE), rolipram was dissolved in 10% kolliphore and IP injected into mice at 0.5 or 0.03 mg kg^−1. The use of the higher dose (that is, 0.5 mg kg^−1) was to ensure sufficient inhibition of PDE[44][45]. […] Rolipram- or vehicle (10% kolliphore)-injected mice were examined with light/dark test and AGS 30 min after drug administration.

[6] = system: Fmr1 KO mice; parameters: method as in PMID 27445731; conditions: cited from earlier work
[7] = system: cAMP; parameters: method as in PMID 9844008; conditions: lower dose 0.03 mg kg^-1; cited from earlier work
[8] = system: WT and Fmr1 KO mice; experiment: Light/dark test; format: in vivo, mouse
Description: Light/dark test was examined as described in our previous study. Light/dark test was performed using 3-month (+/−10 days) old mouse, which was first placed in the dark half of the chamber (Coulbourn Instruments). After 1 min of habituation, the trap door was opened and the mouse was allowed to move freely between the two chambers for 5 min. The time spent in each chamber and the number of entries into the lit side were recorded.
as §2, §3

[9] = Fmr1 KO mice, rolipram 0.03 mg per kg, 30 min before 120 dB stimulation
[10] = Fmr1 KO mice, rolipram 0.5 mg kg^-1 IP, 30 min before testing, 120 dB
[11] = Fmr1 KO mice, rolipram at 0.5 or 0.03 mg kg^-1, systemic
[12] = WT mice, rolipram 0.03 mg per kg, 30 min before 120 dB stimulation
[13] = WT mice, rolipram 0.5 mg kg^-1 IP, 30 min before testing, 120 dB

NC(C(=O)O)c1cc(O)cc(O)c1 (racemic) [DHPG, (RS)-3,5-dihydroxyphenylglycine]
downstream intracellular signalling target ERK1/2 [1]: activates | ADCY1 protein level in Fmr1 KO neurons ([2]; cultured Fmr1 KO hippocampal neurons): no DHPG-triggered increase | Adcy1 mRNA levels ([2]; cultured WT and Fmr1 KO hippocampal neurons): did not alter | ADCY1 protein level in WT neurons ([2]; cultured WT hippocampal neurons): up-regulation

COc1ccc(C2CNC(=O)C2)cc1OC1CCCC1 (stereo not drawn) [rolipram]
exaggerated mGluR1/5-mediated long-term synaptic depression phenotype [3]: rescued | learning and memory in the fly model of FXS [4]: improved | % Clonic/tonic seizure [5, 9]: 35.7% | % Death [5, 9]: 14.3% | % Wild running [5, 9]: 50% | % Clonic/tonic seizure [5, 10]: 46.7% | % Death [5, 10]: 13.3% | % Wild running [5, 10]: 60% | AGS [5, 11]: did not correct | % Clonic/tonic seizure [5, 12]: 0% | % Death [5, 12]: 0% | % Wild running [5, 12]: 13.3% | % Clonic/tonic seizure [5, 13]: 0% | % Death [5, 13]: 0% | % Wild running [5, 13]: 25% | signalling abnormalities in the hippocampus [6]: failed to correct | cAMP changes [7]: not sufficient to cause cAMP changes | abnormal behaviour in light/dark test [8, 11]: did not correct | behavioral changes in light/dark test (treatment effect) ([8]; WT or Fmr1 KO mice, rolipram 0.03 mg per kg i.p., 30 min after injection): n.s. | behavioural changes in light/dark test (drug effect) ([8]; WT or Fmr1 KO mice, rolipram 0.5 mg kg^-1 i.p., 30 min after injection): does not cause significant behavioural changes
